Patent publication US20250195530A1, “POLQ INHIBITORS” (ASTRAZENECA AB, priority 2022, published 2025)
Like-named read-outs stand apart in the source and are kept apart here.

Columns and labels:
[1] = test system: DLD-1 cells; assay: Inhibition of proliferation, DLD-1 BRCA2 wt control (Cell Titre Glo 3D); assay type: cell-based; conditions: Homo sapiens
Method in brief: (§1)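 Proliferation of HR-deficient DLD-1 BRCA2−/− versus isogenic wild-type DLD-1 was measured by ATP luminescence (CellTiter-Glo 3D). Compound exposure lasted 12 or 7 days, respectively, with a fresh dose on day 6. IC50 was the concentration halving maximal signal.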

[2] = test system: DLD-1 BRCA2−/− cells; assay: Homologous recombination synthetic lethal inhibition of proliferation, DLD-1 BRCA2-/- (Cell Titre Glo 3D); assay type: cell-based; conditions: Homo sapiens
Method in brief: as §1

[3] = DLD-1, DLD1 BRCA2 wt, mean, read-out: POLQ PD Prolif Lumin DLD1 mean pIC50 (converted)
[4] = DLD-1, DLD-1 BRCA2 −/−, mean, read-out: POLQ PD Prolif Lumin BRCA2 −/− mean pIC50 (converted)
[5] = DLD-1, second proliferation column (c6), DLD-1 BRCA2 wt control, read-out: POLQ PD Prolif Lumin (converted)
[6] = DLD-1, first proliferation column (c5), DLD-1 BRCA2-/-, read-out: POLQ PD Prolif Lumin (converted)
[7] = DLD-1, proliferation, luminescence, second Prolif column (c6), taken as DLD-1 BRCA2 wt control, read-out: POLQ PD Prolif Lumin (converted)
[8] = DLD-1, proliferation, luminescence, taken as DLD-1 BRCA2-/-, read-out: POLQ PD Prolif Lumin (converted)
[9] = DLD-1, 168 h, DLD-1 BRCA2 wt cells, 7 days, read-out: POLQ PD Prolif Lumin DLD1 mean pIC50 (converted)
[10] = DLD-1, 288 h, DLD-1 BRCA2−/− cells, 12 days, read-out: POLQ PD Prolif Lumin BRCA2 −/− mean pIC50 (converted)

| IC50 [1, 9] [nM] | SMILES | IC50 [2, 10] [nM] | also measured |
| --- | --- | --- | --- |
| – | COc1ccc(Cl)cc1Cn1c(-c2ccc(OCCC(C)(C)C(=O)O)cc2Cl)nc2c(OC3(C)CC3)ncnc21 [Example U31, 4-(3-chloro-4-(9-(5-chloro-2-methoxybenzyl)-6-(1-methylcyclopropoxy)-9H-purin-8-yl)phenoxy)-2,2-dimethylbutanoic acid] | – | IC50 [1, 3]: > 7940 nM; IC50 [2, 4]: 50.1 nM |
| – | CC1(Oc2ncnc3c2nc(-c2cccc(OCCCOCC(=O)O)c2Cl)n3Cc2cc(Cl)ccc2C#N)CC1 [Example U98, 2-(3-(2-chloro-3-(9-(5-chloro-2-cyanobenzyl)-6-(1-methylcyclopropoxy)-9H-purin-8-yl)phenoxy)propoxy)acetic acid] | – | IC50 [1, 3]: > 10000 nM; IC50 [2, 4]: 31.6 nM |
| – | Cc1ccnc(Cn2c(-c3ccc(OCC4(O)CC4)cc3Cl)nc3c(OC4(C)CC4)ncnc32)c1 [Example T197, 1-((3-chloro-4-(6-(1-methylcyclopropoxy)-9-((4-methylpyridin-2-yl)methyl)-9H-purin-8-yl)phenoxy)methyl)cyclopropan-1-ol] | – | IC50 [1, 5]: > 10000 nM; IC50 [2, 6]: 251 nM |
| – | CC1(Oc2ncnc3c2nc(-c2ccc(OCCC(C)(C)C(=O)O)cc2Cl)n3Cc2cccc(Cl)c2)CC1 [Example T435, 4-(3-chloro-4-(9-(3-chlorobenzyl)-6-(1-methylcyclopropoxy)-9H-purin-8-yl)phenoxy)-2,2-dimethylbutanoic acid] | – | IC50 [1, 7]: > 10000 nM; IC50 [2, 8]: 200 nM |
| – | CC1(Oc2ncnc3c2nc(-c2ccc(OCCCCOCC(=O)O)cc2Cl)n3Cc2cccc(Cl)c2)CC1 [Example T445, 2-(4-(3-chloro-4-(9-(3-chlorobenzyl)-6-(1-methylcyclopropoxy)-9H-purin-8-yl)phenoxy)butoxy)acetic acid] | – | IC50 [1, 7]: > 10000 nM; IC50 [2, 8]: 251 nM |
| > 10000 | Cc1cc(OCCCN2CCOCC2)ncc1-c1nc2c(OC3(C)CC3)ncnc2n1Cc1ccccc1 [Example G7, 4-(3-((5-(9-benzyl-6-(1-methylcyclopropoxy)-9H-purin-8-yl)-4-methylpyridin-2-yl)oxy)propyl)morpholine] | 398 | – |
| > 10000 | CC1(Oc2ncnc3c2nc(-c2ccc(OCCNCC(=O)O)cc2Cl)n3Cc2ccccc2)CC1 [Example D29, (2-(4-(9-benzyl-6-(1-methylcyclopropoxy)-9H-purin-8-yl)-3-chlorophenoxy)ethyl)glycine] | 5010 | – |
| 3980 | CC1(Oc2ncnc3c2nc(-c2ccc(OC4CC5(CNC5)C4)cc2Cl)n3Cc2ccccc2)CC1 [Example D34, 8-(4-((2-azaspiro[3.3]heptan-6-yl)oxy)-2-chlorophenyl)-9-benzyl-6-(1-methylcyclopropoxy)-9H-purine] | 200 | – |
| > 10000 | CC1(Oc2ncnc3c2nc(-c2ccc(OCCN4CCNCC4)cc2Cl)n3Cc2ncc(Cl)s2)CC1 [Example L6, 5-chloro-2-((8-(2-chloro-4-(2-(piperazin-1-yl)ethoxy)phenyl)-6-(1-methylcyclopropoxy)-9H-purin-9-yl)methyl)thiazole] | 398 | – |
| > 10000 | Cc1cc(OCCN2CCNCC2)ncc1-c1nc2c(OC3(C)CC3)ncnc2n1Cc1ccccc1Cl [Example J5, 9-(2-chlorobenzyl)-8-(4-methyl-6-(2-(piperazin-1-yl)ethoxy)pyridin-3-yl)-6-(1-methylcyclopropoxy)-9H-purine] | 1000 | – |
| – | C[C@@H](CCOc1cccc(-c2nc3c(OC4(C)CC4)ncnc3n2Cc2cc(Cl)ccc2F)c1Cl)C(=O)O [Example U24, (S)-4-(2-chloro-3-(9-(5-chloro-2-fluorobenzyl)-6-(1-methylcyclopropoxy)-9H-purin-8-yl)phenoxy)-2-methylbutanoic acid] | – | IC50 [1, 3]: > 10000 nM; IC50 [2, 4]: 12.6 nM |
| – | Cc1ccnc(Cn2c(-c3ccc(OC4CNC4)cc3Cl)nc3c(OC4(C)CC4)ncnc32)c1 [Example T111, 8-(4-(azetidin-3-yloxy)-2-chlorophenyl)-6-(1-methylcyclopropoxy)-9-((4-methylpyridin-2-yl)methyl)-9H-purine] | – | IC50 [1, 5]: > 10000 nM; IC50 [2, 6]: 316 nM |
| 3980 | CC1(Oc2ncnc3c2nc(-c2ccc(OCCN4CC5(CNC(=O)C5)C4)cc2Cl)n3Cc2ccccc2)CC1 [Example R8, 2-(2-(4-(9-benzyl-6-(1-methylcyclopropoxy)-9H-purin-8-yl)-3-chlorophenoxy)ethyl)-2,6-diazaspiro[3.4]octan-7-one] | 251 | – |
| 3160 | CC1(Oc2ncnc3c2nc(-c2ccc(OCCCN4CCNCC4)cc2Cl)n3Cc2ccccc2)CC1 [Example D18, 9-benzyl-8-(2-chloro-4-(3-(piperazin-1-yl)propoxy)phenyl)-6-(1-methylcyclopropoxy)-9H-purine] | 126 | – |
| – | Cc1ccnc(Cn2c(-c3ccc(CN4CC5(CCN5)C4)cc3Cl)nc3c(OC4(C)CC4)ncnc32)c1 [Example T489, 8-(4-((1,6-diazaspiro[3.3]heptan-6-yl)methyl)-2-chlorophenyl)-6-(1-methylcyclopropoxy)-9-((4-methylpyridin-2-yl)methyl)-9H-purine] | – | IC50 [1, 5]: 5010 nM; IC50 [2, 6]: 794 nM |
| – | Cc1ccc(F)c(Cn2c(-c3ccc(OCCC(C)C(=O)O)cc3Cl)nc3c(OC4(C)CC4)ncnc32)c1 (racemic) [Example T417, 4-(3-chloro-4-(9-(2-fluoro-5-methylbenzyl)-6-(1-methylcyclopropoxy)-9H-purin-8-yl)phenoxy)-2-methylbutanoic acid] | – | IC50 [1, 7]: > 10000 nM; IC50 [2, 8]: 50.1 nM |
| > 10000 | CC1(Oc2ncnc3c2nc(-c2ccc(/C=C/C(=O)O)cc2Cl)n3Cc2ccccc2)CC1 [Example M4, (E)-3-(4-(9-benzyl-6-(1-methylcyclopropoxy)-9H-purin-8-yl)-3-chlorophenyl)acrylic acid] | 631 | – |
| 7940 | Cc1c(-c2nc3c(OC4(C)CC4)ncnc3n2Cc2ccccc2)ccnc1OCCN1CCNCC1 [Example G14, 9-benzyl-8-(3-methyl-2-(2-(piperazin-1-yl)ethoxy)pyridin-4-yl)-6-(1-methylcyclopropoxy)-9H-purine] | 794 | – |
| > 10000 | CC1(Oc2ncnc3c2nc(-c2ccc(OCCN4CCC[C@H]4C(=O)O)cc2Cl)n3Cc2ccccc2)CC1 [Example H12, (2-(4-(9-benzyl-6-(1-methylcyclopropoxy)-9H-purin-8-yl)-3-chlorophenoxy)ethyl)-L-proline] | 1000 | – |
| – | CC(CCOc1ccc(-c2nc3c(OC4(C)CC4)ncnc3n2Cc2cc(F)cc(F)c2)c(Cl)c1)C(=O)O (racemic) [Example T260, 4-(3-chloro-4-(9-(3,5-difluorobenzyl)-6-(1-methylcyclopropoxy)-9H-purin-8-yl)phenoxy)-2-methylbutanoic acid] | – | IC50 ([1]; DLD-1, DLD-1 BRCA2 wt control proliferation, column head only partly shown, read-out: POLQ PD Prolif Lumin (converted)): > 10000 nM; IC50 ([2]; DLD-1, DLD-1 BRCA2-/- proliferation, column head only partly shown, read-out: POLQ PD Prolif Lumin (converted)): 251 nM |
| – | CC(CCOc1ccc(-c2nc3c(OC4(C)CC4)ncnc3n2Cc2cccc(C#N)c2)c(Cl)c1)C(=O)O (racemic) [Example T399, 4-(3-chloro-4-(9-(3-cyanobenzyl)-6-(1-methylcyclopropoxy)-9H-purin-8-yl)phenoxy)-2-methylbutanoic acid] | – | IC50 [1, 7]: > 10000 nM; IC50 [2, 8]: 316 nM |
| – | CC1(Oc2ncnc3c2nc(-c2ccc(OCCCN4CC(O)C4)cc2Cl)n3Cc2cc(Cl)ccn2)CC1 [Example T347, 1-(3-(3-chloro-4-(9-((4-chloropyridin-2-yl)methyl)-6-(1-methylcyclopropoxy)-9H-purin-8-yl)phenoxy)propyl)azetidin-3-ol] | – | IC50 ([1]; DLD-1, second proliferation column (c6), taken as DLD-1 BRCA2 wt, read-out: POLQ PD Prolif Lumin (converted)): > 7940 nM; IC50 ([2]; DLD-1, first proliferation column (c5), taken as DLD-1 BRCA2-/-, read-out: POLQ PD Prolif Lumin (converted)): 158 nM |
| 5010 | CN1CCN(CCOc2ccc(-c3nc4c(OC5(C)CC5)ncnc4n3Cc3ccccc3)c(Br)c2)CC1 [Example H6, 9-benzyl-8-(2-bromo-4-(2-(4-methylpiperazin-1-yl)ethoxy)phenyl)-6-(1-methylcyclopropoxy)-9H-purine] | 63.1 | – |
| 3980 | COc1cc(-c2nc3c(OC4(C)CC4)ncnc3n2Cc2ccccc2)c(Cl)cc1OCCN1CCNCC1 [Example J2, 9-benzyl-8-(2-chloro-5-methoxy-4-(2-(piperazin-1-yl)ethoxy)phenyl)-6-(1-methylcyclopropoxy)-9H-purine] | 794 | – |
| > 10000 | CC1(Oc2ncnc3c2nc(-c2ccc(C(N)=O)cc2Cl)n3Cc2ccccc2)CC1 [Example N4, 4-(9-benzyl-6-(1-methylcyclopropoxy)-9H-purin-8-yl)-3-chlorobenzamide] | 200 | – |
| – | CC1(Oc2ncnc3c2nc(-c2cccc(C(=O)O)c2Cl)n3Cc2cccc(Cl)c2)CC1 [Example T12, 2-chloro-3-(9-(3-chlorobenzyl)-6-(1-methylcyclopropoxy)-9H-purin-8-yl)benzoic acid] | – | IC50 ([1]; DLD-1, DLD1 BRCA2 wt cells, mean, read-out: POLQ PD Prolif Lumin DLD1 mean PIC50 (converted)): > 10000 nM; IC50 ([2]; DLD-1, DLD-1 BRCA2 −/− cells, mean, read-out: POLQ PD Prolif Lumin BRCA2 −/− mean pIC50 (converted)): > 10000 nM |
